Assay results taken from US11992498B2, “Substituted N9-adenine derivatives, pharmaceutical compositions containing same and use thereof” (priority 2018, dated 2024).

Columns and labels:
Format in all cases: cell-based, mouse
C2C12 cells [1] = assay: Glucose consumption test (2-deoxyglucose uptake, luminometric) in C2C12 myotubes; details: one hour incubation
Procedure: C2C12 cells of the mouse muscle myoblastoma cell line (from Sigma-Aldrich) were seeded at a cell density of 10,000 cells per well in a white 96-well plate compatible with the use of a luminometer. Cells were grown for 5 days in 200 μl/well of growth medium (high glucose DMEM, 10% foetal bovine serum […], penicillin and […]) in an incubator at 37° C. and 5% CO2. The medium was changed every two days. The medium was then replaced with a differentiation medium (low glucose DMEM, 2% […], penicillin and […]), allowing the cells to differentiate into myotubes for three days. The medium was changed every day. One day prior to testing, cells were serum starved (low glucose DMEM, penicillin and […]). The medium was then replaced by a DMEM medium without glucose and the compound N9-(3-diethylphosphonyl)phenyl-adenine was incubated for one hour at different concentrations, replicating the conditions in quadruplicate. The positive control consisted of 100 nanomolar human insulin solution (from Sigma). A Promega glucose consumption kit was used following the manufacturer's instructions. […]
Total luminescence was measured on a Biotek MX luminometric plate reader. […]

AMPK = AMPK activation assay (ELISA ratio phosphorylated α-AMPK:total α-AMPK in C2C12 cells); details: concentrations as low as 30 nanomolar, 4 hours of incubation
Procedure: C2C12 cells from the mouse muscle myoblastoma cell line (from Sigma-Aldrich) were seeded at a cell density of 10,000 cells per well in a 96-well plate in 200 μl of growth medium (high glucose DMEM, 10% foetal bovine serum […], penicillin and […]). The cells were allowed to grow until confluence and on the day of the assay they were incubated with the compound of interest in 100 μl of growth medium at 37° C. and 5% CO2 in an incubator for between 1 and 24 hours. All conditions were tested in quadruplicate. The compounds were administered dissolved in sterile anhydrous dimethyl sulphoxide at different concentrations. As a positive control for AMPK activation, an adenosine monophosphate (AMP) solution with a final concentration of […] was used. After the corresponding times, the medium was removed and the cells were carefully washed three times with PBS at room temperature and the Abcam Elisa kit was used to quantify the ratio of phosphorylated α-AMPK:total α-AMPK. The manufacturer's instructions were followed and the signal was quantified using a Licor Odissey® scanner.
The compounds selected as AMPK activators according to the criteria described above are used in glucose consumption tests and MTT cell viability tests.

C2C12 cells [2] = assay: MTT cell viability/proliferation assay in C2C12 myotubes
Procedure: MTT Cell Viability/Proliferation Assay
The MTT redox assay is based on the metabolic reduction of bromide from 3-(4,5-dimethylthiazol-2-yl)-2,5-diphenyltetrazole (MTT) that is produced by the mitochondrial enzyme succinate-dehydrogenase, which colours the formazan dye blue, allowing to determine the mitochondrial functionality of the treated cells.
C2C12 cells were seeded at a density of 10,000 cells per well in a white 96-well plate compatible with the use of a luminometer. Cells were grown for 5 days in 200 μl/well of growth medium (high glucose DMEM, 10% FBS, penicillin and […]), with the medium being replaced every two days. Subsequently, the medium was replaced by a differentiation medium (low glucose DMEM, 2% NHS, penicillin and […]) and the cells were allowed to differentiate in myotubes for three days, the medium being changed every day. In all processes, cells were incubated at 37° C. and 5% CO2 in a cell incubator. The compound N9-(3-diethylphosphonyl)phenyl-adenine was incubated for 24 and 48 hours in low glucose DMEM without serum. […] After incubation, 10 μl of the MTT reagent (Abcam) was added to each well and, after 30 min, 45 min and 60 min of incubation, the absorbance at 490 nm was measured in a photometer with a Biotek TX plate reader. The reading is an indirect measure of the NAD(P)H enzyme dependent on cellular oxidase reductases. […]

Substance: N9-(3-diethylphosphonyl)phenyl-adenine
- Luminosity as % of the control (glucose consumption) (C2C12 cells [1]; 30 nanomolar, C2C12 myotubes): 125±9%
- glucose consumption activity compared with insulin controls (C2C12 cells [1]; concentrations as low as 30 nanomolar, control 100 nanomolar human insulin): analogous to or greater than that of insulin controls
- AMPK activity as % of that obtained with the AMP positive control (AMPK): greater than 500%
- AMPK activity compared with the AMP positive control (AMPK): higher AMPK activity than the AMP positive control
- Luminosity as % of the control (MTT) (C2C12 cells [2]; 30 nanomolar, 48 hours incubation): 157±5%
- MTT signal compared to controls (C2C12 cells [2]; nanomolar concentrations): significantly higher signal compared to controls
